Data: patent publication US20170156324A1 (Dow AgroSciences LLC, priority 2015, published 2017)
Several values for one entry are separate records, joined by “and”; a condition that tells them apart may be missing. Equal values may be shown once.

Tests used:
Type in all cases: in vivo
[1] = test system: Matricaria inodora (scentless mayweed, MATIN); assay: Field trial, post-emergence % visual weed control, MATIN; details: 14DAA
Text: (§1) Except for the trials utilizing the OD formulations, Actirob B was applied at 0.5 or 1.0 liters per hectare (L/ha), or Polyglycol 26-2 was applied at 0.5 to 1.0 L/ha in all respective single and tankmixture treatments being evaluated.
(§2) Trials were established as randomized complete blocks (RCBD) with three to four replicates. Individual treatments were 2-2.5 meters (m) wide and 6-20 m long. An untreated control was included in each trial. All trial sites had naturally occurring populations of weeds.
(§3) Herbicides were applied with backpack or bicycle sprayers using compressed air, nitrogen (N2) or carbon dioxide (CO2) as a propellant. All sprayers delivered a uniform spray pattern that provided thorough coverage of the foliage using a water volume of 150-300 L/ha. All herbicides were applied post-emergence in the spring to early-summer At the time of herbicide applications, winter wheat crops were at the six-leaf to three-tiller stage. Broadleaf and grass weeds were at a similar stage of growth at the time of herbicide application, typically from five leaf to 3 tiller depending on the weed species and time of year.
(§4) The treated plots and control plots were rated blind at various intervals after application. […] The control of the target weeds was visually assessed as percent control, compared to an untreated control plot. The assessments were based on a percent visual reduction in pest plant biomass and/or stand reduction of weed population.
(§5) The efficacy of all treatments was assessed at 13-22 days after application (DAA) for an early season rating, 23-39 DAA for a mid-season rating, and 41-84 DAA for a late-season rating. The data were statistically analyzed using various statistical methods, generally including a Tukey's HSD Factorial Analysis of Variance with a significance level of 5%.
(§6) Colby's equation was used to determine the herbicidal effects expected from the mixtures (Colby, S. R. Calculation of the synergistic and antagonistic response of herbicide combinations. Weeds 1967, 15, 20-22). A t-test (alpha=0.05) between Colby predictions and observed combinations was used to test for significant differences indicating synergy or antagonism using replicate data.
(§7) Expected=A+B+C−(AB+AC+BC)/100+(ABC)/10,000

[2] = test system: Viola arvensis Murr. (field violet, VIOAR); assay: Field trial, post-emergence % visual weed control, VIOAR
Text: as §1, §2, §3, §4, §5, §6, §7

[3] = test system: Lamium purpureum L. (purple deadnettle, LAMPU); assay: Field trial, post-emergence % visual weed control, LAMPU; details: 15DAA, 3.75 g ai/ha
Text: as §1, §2, §3, §4, §5, §6, §7

[4] = test system: Matricaria recutita L. (wild chamomile, MATCH); assay: Field trial, post-emergence % visual weed control, MATCH; details: 3.75 g ai/ha
Text: as §1, §2, §3, §4, §5, §6, §7

[5] = test system: Stellaria media (L.) Vill. (common chickweed, STEME); assay: Field trial, post-emergence % visual weed control, STEME; details: 3.75 g ai/ha
Text: as §1, §2, §3, §4, §5, §6, §7

[6] = test system: Centaurea cyanus (cornflower, CENCY); assay: Field trial, post-emergence % visual weed control, CENCY
Text: as §1, §2, §3, §4, §5, §6, §7

[7] = test system: Galium aparine L. (catchweed bedstraw, GALAP); assay: Field trial, post-emergence % visual weed control, GALAP; details: 28DAA, 3 g ai/ha
Text: as §1, §2, §3, §4, §5
(§8) Colby's equation was used to determine the herbicidal effects expected from the mixtures (Colby, S. R. Calculation of the synergistic and antagonistic response of herbicide combinations. Weeds 1967, 15, 20-22). […]

[8] = test system: Solanum nigrum L. (black nightshade, SOLNI); assay: Field trial, post-emergence % visual weed control, SOLNI; details: 6.25 g ai/ha
Text: as §1, §2, §3, §4, §5, §6, §7

[9] = test system: Consolida regalis S. F. Gray (branching larkspur, CNSRE); assay: Field trial, post-emergence % visual weed control, CNSRE
Text: as §1, §2, §3, §4, §5, §6, §7

[10] = test system: Agropyron repens L. (quackgrass, AGRRE); assay: Field trial, post-emergence % visual weed control, AGRRE; details: 14DAA, 4 g ai/ha
Text: as §1, §2, §3, §4, §5, §8

[11] = test system: Alopecurus myosuroides Huds. (blackgrass, ALOMY); assay: Field trial, post-emergence % visual weed control, ALOMY; details: 15DAA, 3 g ai/ha
Text: as §1, §2, §3, §4, §5, §8

[12] = test system: Apera spica-venti (L.) Beauv. (windgrass, APESV); assay: Field trial, post-emergence % visual weed control, APESV
Text: as §1, §2, §3, §4, §5, §6, §7

[13] = test system: Echinochloa crus-galli (L.) P. Beauv. (barnyardgrass, ECHCG); assay: Field trial, post-emergence % visual weed control, ECHCG; details: 6.25 g ai/ha
Text: as §1, §2, §3, §4, §5, §6, §7

Structure (SMILES): COc1ncc(F)c2nc(S(=O)(=O)Nc3c(F)cccc3F)nn12 [Florasulam, N-(2,6-difluorophenyl)-8-fluoro-5-methoxy[1,2,4]triazolo[1,5-c]pyrimidine-2-sulfonamide]
- Mean % Weed Control ([1]; 3 g ai/ha): 30.0%
- Mean % Weed Control ([1]; 4 g ai/ha): 35.0%
- Mean % Weed Control ([2]; 14DAA, 3 g ai/ha): 0.0%
- Mean % Weed Control ([2]; 56DAA, 4 g ai/ha): 20.0%
- Mean % Weed Control [3]: 0.0%
- Mean % Weed Control ([4]; 15DAA): 10.0%
- Mean % Weed Control ([4]; 61DAA): 85.0% and 67.4%
- Mean % Weed Control ([4]; 78DAA): 76.3%
- Mean % Weed Control ([5]; 15DAA): 0.0%
- Mean % Weed Control ([5]; 61DAA): 68.8% and 56.1%
- Mean % Weed Control ([5]; 78DAA): 31.3%
- Mean % Weed Control ([6]; 28DAA, 3 g ai/ha): 48.8%
- Mean % Weed Control ([6]; 28DAA, 4 g ai/ha): 75.0%
- Mean % Weed Control ([6]; 56DAA, 3 g ai/ha): 27.5% and 48.8%
- Mean % Weed Control ([6]; 77DAA, 3 g ai/ha): 40.0%
- Mean % Weed Control ([6]; 77DAA, 4 g ai/ha): 82.5%
- Mean % Weed Control ([6]; 84DAA, 4 g ai/ha): 30.0%
- Mean % Weed Control [7]: 57.5%
- Mean % Weed Control ([8]; 29DAA): 40.0%
- Mean % Weed Control ([8]; 56DAA): 20.0%
- Mean % Weed Control ([9]; 31DAA, 3 g ai/ha): 75.0%
- Mean % Weed Control ([9]; 31DAA, 4 g ai/ha): 75.0%
- Mean % Weed Control ([9]; 53DAA, 3 g ai/ha): 78.5%
- Mean % Weed Control ([9]; 53DAA, 4 g ai/ha): 79.5%
- Mean % Weed Control ([9]; 84DAA, 3 g ai/ha): 79%
- Mean % Weed Control ([9]; 84DAA, 4 g ai/ha): 80%
- Mean % Weed Control [10]: 0.0%
- Mean % Weed Control [11]: 2.5%
- Mean % Weed Control ([12]; 14DAA, 3 g ai/ha): 0.0%
- Mean % Weed Control ([12]; 14DAA, 4 g ai/ha): 0.0%
- Mean % Weed Control ([12]; 28DAA, 3 g ai/ha): 0.0%
- Mean % Weed Control ([12]; 28DAA, 4 g ai/ha): 0.0%
- Mean % Weed Control ([12]; 56DAA, 3 g ai/ha): 0.0%
- Mean % Weed Control ([12]; 56DAA, 4 g ai/ha): 0.0%
- Mean % Weed Control ([13]; 14DAA): 20.0%
- Mean % Weed Control ([13]; 29DAA): 10.0%
- Mean % Weed Control ([13]; 56DAA): 10.0%
